From patent US20260265246A1 (ICAHN SCHOOL OF MEDICINE AT MOUNT SINAI, priority 2021, published 2026)
pKi: −log10 of the molar value.

target: T1, 5HT2A receptor (Homo sapiens, UniProt P28223); assay: cell-based; design: expressed in transfected cells; host or cells: HEK293T cells, transient co-transfection; details: HEK-293T, BRET2 Gαq dissociation, HEK293T cells, normalized to 5-HT; read-out: 5HT2A Gq Emax (%)
T1 sequence (P28223 whole entry): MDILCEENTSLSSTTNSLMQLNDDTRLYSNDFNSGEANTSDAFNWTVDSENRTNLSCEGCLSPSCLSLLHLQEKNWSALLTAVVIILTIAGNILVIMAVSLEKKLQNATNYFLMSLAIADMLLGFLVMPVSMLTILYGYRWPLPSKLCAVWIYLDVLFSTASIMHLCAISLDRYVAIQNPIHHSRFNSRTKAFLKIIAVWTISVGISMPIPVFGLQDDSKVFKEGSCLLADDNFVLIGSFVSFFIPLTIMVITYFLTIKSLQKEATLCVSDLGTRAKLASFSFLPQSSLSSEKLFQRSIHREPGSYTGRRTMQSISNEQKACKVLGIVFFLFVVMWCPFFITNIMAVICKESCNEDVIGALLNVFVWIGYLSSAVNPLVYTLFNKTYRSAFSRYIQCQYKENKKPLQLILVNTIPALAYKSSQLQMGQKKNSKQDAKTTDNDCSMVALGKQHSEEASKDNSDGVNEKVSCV

In the case of `COc1ccc2[nH]nc(C3=CCCNC3)c2c1` [Example 87, 5-methoxy-3-(1,2,5,6-tetrahydropyridin-3-yl)-1H-indazole], the Emax was 84.2%.

target: T1, 5HT2A receptor; assay: cell-based; design: expressed in transfected cells; host or cells: HEK293T cells, transient co-transfection; details: HEK-293T, BRET1 beta-arrestin2 recruitment, HEK293T cells, normalized to 5-HT; read-out: 5HT2A β-Arr Emax (%)

`COc1ccc2[nH]nc(C3=CCCNC3)c2c1` [Example 87, 5-methoxy-3-(1,2,5,6-tetrahydropyridin-3-yl)-1H-indazole] showed an Emax of 80%.

target: T1, 5HT2A receptor; assay: biochemical; type: binding; design: expressed in transfected cells; crude membranes; details: 5HT2A Ki (nM), secondary binding assay, Cheng-Prusoff

Compared with `Cc1cccc2c(C3=CN4CCC3CC4)c[nH]c12` [Example 252, 3-(7-methyl-1H-indol-3-yl)-1-azabicyclo[2.2.2]oct-2-ene], `Cc1cccc2c(C3CN4CCC3CC4)c[nH]c12` (stereo not shown) [Example 253, 3-(7-methyl-1H-indol-3-yl)quinuclidine] is higher in Ki: 6020 nM for the first, over 10000 nM for the second. The first binds more tightly here.

`Clc1cc(Cl)c2[nH]cc(C3CNC3)c2c1` [Example 266, 3-(azetidin-3-yl)-5,7-dichloro-1H-indole] and `Cc1cc(Br)cc2c(C3CNC3)c[nH]c12` [Example 265, 3-(azetidin-3-yl)-5-bromo-7-methyl-1H-indole] are within 1.5-fold of each other in Ki: 244 nM for the first, 217 nM for the second.

Compared with `N#Cc1cccc2c(N3CCNCC3)n[nH]c12` [Example 231, 3-(piperazin-1-yl)-1H-indazole-7-carbonitrile], `Cc1cccc2c(N3CCN(C)CC3)n[nH]c12` [Example 234, 7-methyl-3-(4-methylpiperazin-1-yl)-1H-indazole] is 12-fold lower in Ki: 3010 nM for the first, 259 nM for the second.

Going from `Clc1cccc2c(C3=CCCN(C4CCC4)C3)n[nH]c12` [Example 174, 7-chloro-3-(1-cyclobutyl-1,2,5,6-tetrahydropyridin-3-yl)-1H-indazole] to `Clc1cccc2c(C3=CCCN(C4COC4)C3)n[nH]c12` [Example 178, 7-chloro-3-(1-(oxetan-3-yl)-1,2,5,6-tetrahydropyridin-3-yl)-1H-indazole], the Ki rises from 9760 nM to over 10000 nM.

`Fc1cccc2c(C34CNCC3C4(F)F)n[nH]c12` (stereo not shown) [Example 201, 3-(6,6-difluoro-3-azabicyclo[3.1.0]hexan-1-yl)-7-fluoro-1H-indazole] and `Fc1cccc2c(C34CNCCC3C4(F)F)n[nH]c12` (stereo not shown) [Example 190, 3-(7,7-difluoro-3-azabicyclo[4.1.0]heptan-1-yl)-7-fluoro-1H-indazole] are within 1.5-fold of each other in Ki: 4310 nM for the first, 5370 nM for the second.

`N#Cc1cccc2c(C34CNCCC3C4(F)F)n[nH]c12` (stereo not shown) [Example 192, 3-(7,7-difluoro-3-azabicyclo[4.1.0]heptan-1-yl)-1H-indazole-7-carbonitrile] and `N#Cc1cccc2c(C34CNCC3C4(F)F)n[nH]c12` (stereo not shown) [Example 202, 3-(6,6-difluoro-3-azabicyclo[3.1.0]hexan-1-yl)-1H-indazole-7-carbonitrile] cannot be ordered by Ki: over 10000 nM for the first, over 10000 nM for the second.

Going from `CCCN1CC=C(c2n[nH]c3c(Cl)cccc23)CC1` [Example 242, 7-chloro-3-(1-propyl-1,2,3,6-tetrahydropyridin-4-yl)-1H-indazole] to `Clc1cccc2c(C3=CCOCC3)n[nH]c12` [Example 220, 7-chloro-3-(3,6-dihydro-2H-pyran-4-yl)-1H-indazole], the Ki rises from 330 nM to over 10000 nM.

First: Cc1cccc2c(C34CNCC3C4(F)F)n[nH]c12 (stereo not shown) [Example 200]
Second: Cc1cccc2c(C34CNCCC3C4(F)F)n[nH]c12 (stereo not shown) [Example 189, 3-(7,7-difluoro-3-azabicyclo[4.1.0]heptan-1-yl)-7-methyl-1H-indazole]
The Ki of the first is higher: over 10000 nM for the first, 6920 nM for the second.

First: Clc1cccc2c(-c3cn[nH]c3)n[nH]c12 [Example 218, 7-chloro-3-(1H-pyrazol-4-yl)-1H-indazole]
Second: Clc1cccc2c(-c3cnc[nH]3)n[nH]c12 [Example 217, 7-chloro-3-(1H-imidazol-5-yl)-1H-indazole]
The Ki of the first is lower: 1720 nM for the first, over 10000 nM for the second.

Going from `CCCN1CCC=C(c2n[nH]c3c(C#N)cccc23)C1` [Example 176, 3-(1-propyl-1,2,5,6-tetrahydropyridin-3-yl)-1H-indazole-7-carbonitrile] to `CCCc1cccc2c(C3=CCCNC3)n[nH]c12` [Example 236], the Ki falls from over 10000 nM to 294 nM. The second binds more tightly here.

Going from `CC(C)N1CCOC(c2c[nH]c3c(Cl)cccc23)C1` (stereo not shown) [Example 248, 2-(7-chloro-1H-indol-3-yl)-4-isopropylmorpholine] to `Clc1cccc2c(C3CN4CCC3CC4)c[nH]c12` (stereo not shown) [Example 251, 3-(7-chloro-1H-indol-3-yl)quinuclidine], the Ki falls from 5890 nM to 1100 nM (5.4-fold). The second binds more tightly here.

`CCCNC1CCC=C(c2n[nH]c3c(Cl)cccc23)C1` (stereo not shown) [Example 171, 3-(7-chloro-1H-indazol-3-yl)-N-propylcyclohex-3-en-1-amine] and `NC1CCC=C(c2n[nH]c3c(Cl)cccc23)C1` (stereo not shown) [Example 169, 3-(7-chloro-1H-indazol-3-yl)cyclohex-3-en-1-amine] cannot be ordered by Ki: over 10000 nM for the first, over 10000 nM for the second.

First: Cc1cccc2c(C34CNCCC3C4)n[nH]c12 (stereo not shown) [Example 193, 3-(3-azabicyclo[4.1.0]heptan-1-yl)-7-methyl-1H-indazole]
Second: CN1CCC2CC2(c2n[nH]c3c(Cl)cccc23)C1 (stereo not shown) [Example 197, 7-chloro-3-(3-methyl-3-azabicyclo[4.1.0]heptan-1-yl)-1H-indazole]
The Ki of the first is higher: over 10000 nM for the first, 1200 nM for the second. The second binds more tightly here.

`CN1CC2C=C(c3n[nH]c4c(Cl)cccc34)C1CC2` (stereo not shown) [Example 224, 6-(7-chloro-1H-indazol-3-yl)-2-methyl-2-azabicyclo[2.2.2]oct-5-ene] and `CN1CCC(c2n[nH]c3c(Cl)cccc23)C1` (stereo not shown) [Example 222, 7-chloro-3-(1-methylpyrrolidin-3-yl)-1H-indazole] are within 1.5-fold of each other in Ki: 8880 nM for the first, 6980 nM for the second.

`c1cc(-c2cncnc2)c2[nH]nc(-c3cncnc3)c2c1` [Example 215, 3,7-di(pyrimidin-5-yl)-1H-indazole] gave a Ki of 3280 nM.

same assay, conditions: 5HT2A Ki (nM), secondary radioligand binding, Ki from IC50 by Cheng-Prusoff

First: Clc1cccn2c(C3=CCCNC3)cnc12 [Example 110, 8-chloro-3-(1,2,5,6-tetrahydropyridin-3-yl)imidazo[1,2-a]pyridine]
Second: Cc1cnc2[nH]cc(C3=CCCNC3)c2c1 [Example 1, 5-methyl-3-(1,2,5,6-tetrahydropyridin-3-yl)-1H-pyrrolo[2,3-b]pyridine]
The Ki of the first is higher: over 10000 nM for the first, 1720 nM for the second.

Compared with `C1=C(c2c[nH]c3ccc(-c4ccccc4)cc23)CNCC1` [Example 27, 5-phenyl-3-(1,2,5,6-tetrahydropyridin-3-yl)-1H-indole], `CN1CCC=C(c2c[nH]c3ccc(-c4ccccc4)cc23)C1` [Example 28, 3-(1-methyl-1,2,5,6-tetrahydropyridin-3-yl)-5-phenyl-1H-indole] is 3-fold lower in Ki: 1480 nM for the first, 498 nM for the second.

First: COc1ccc2c(C3=CCCN(C)C3)c[nH]c2c1 [Example 36, 6-methoxy-3-(1-methyl-1,2,5,6-tetrahydropyridin-3-yl)-1H-indole]
Second: COc1ccc2c(C3=CCCNC3)c[nH]c2c1 [Example 35, 6-methoxy-3-(1,2,5,6-tetrahydropyridin-3-yl)-1H-indole]
The Ki of the first is lower: 8500 nM for the first, over 10000 nM for the second.

`O=C(O)c1cccc2c(C3=CCCN(Cc4ccccc4)C3)c[nH]c12` [Example 74, 3-(1-benzyl-1,2,5,6-tetrahydropyridin-3-yl)-1H-indole-7-carboxylic acid] and `OCc1cccc2c(C3=CCCN(Cc4ccccc4)C3)c[nH]c12` [Example 75, (3-(1-benzyl-1,2,5,6-tetrahydropyridin-3-yl)-1H-indol-7-yl)methanol] cannot be ordered by Ki: over 10000 nM for the first, over 10000 nM for the second.

`CN1CCC=C(c2c[nH]c3c(CO)cccc23)C1` [Example 58, (3-(1-methyl-1,2,5,6-tetrahydropyridin-3-yl)-1H-indol-7-yl)methanol] and `CN1CCC=C(c2c[nH]c3c(C(=O)O)cccc23)C1` [Example 57, 3-(1-methyl-1,2,5,6-tetrahydropyridin-3-yl)-1H-indole-7-carboxylic acid] cannot be ordered by Ki: over 10000 nM for the first, over 10000 nM for the second.

First: Cc1ccc2c(C3=CCCNC3)c[nH]c2c1 [Example 29, 6-methyl-3-(1,2,5,6-tetrahydropyridin-3-yl)-1H-indole]
Second: CC(C)(C)c1ccc2c(C3=CCCNC3)c[nH]c2c1 [Example 37, 6-(tert-butyl)-3-(1,2,5,6-tetrahydropyridin-3-yl)-1H-indole]
The Ki of the first is 8.3-fold lower: 1200 nM for the first, 9910 nM for the second. The first binds more tightly here.

First: CC(C)c1ccc2[nH]cc(C3=CCCN(C)C3)c2c1 [Example 24, 5-isopropyl-3-(1-methyl-1,2,5,6-tetrahydropyridin-3-yl)-1H-indole]
Second: CC(C)c1cccc2c(C3=CCCN(C)C3)c[nH]c12 [Example 54, 7-isopropyl-3-(1-methyl-1,2,5,6-tetrahydropyridin-3-yl)-1H-indole]
The Ki of the first is 4.9-fold lower: 105 nM for the first, 510 nM for the second.

Going from `COc1cccc2c(C3=CCCN(C)C3)n[nH]c12` [Example 109, 7-methoxy-3-(1-methyl-1,2,5,6-tetrahydropyridin-3-yl)-1H-indazole] to `Cc1ccc2c(C3=CCCN(C)C3)n[nH]c2c1` [Example 93, 6-methyl-3-(1-methyl-1,2,5,6-tetrahydropyridin-3-yl)-1H-indazole], the Ki falls from over 10000 nM to 2920 nM. The second binds more tightly here.

Compared with `CN1CCC=C(c2n[nH]c3cc(C#N)ccc23)C1` [Example 96, 3-(1-methyl-1,2,5,6-tetrahydropyridin-3-yl)-1H-indazole-6-carbonitrile], `Cc1cnc2[nH]cc(C3=CCCN(C)C3)c2c1` [Example 5, 5-methyl-3-(1-methyl-1,2,5,6-tetrahydropyridin-3-yl)-1H-pyrrolo[2,3-b]pyridine] is 7.6-fold lower in Ki: 5470 nM for the first, 717 nM for the second.

Compared with `COc1cccc2c(C3=CCCNC3)c[nH]c12` [Example 51, 7-methoxy-3-(1,2,5,6-tetrahydropyridin-3-yl)-1H-indole], `CC(C)(C)c1cccc2c(C3=CCCN(Cc4ccccc4)C3)c[nH]c12` [Example 72, 3-(1-benzyl-1,2,5,6-tetrahydropyridin-3-yl)-7-tert-butyl-1H-indole] is lower in Ki: over 10000 nM for the first, 734 nM for the second.

same assay, conditions: secondary binding assay, Cheng-Prusoff; read-out: 5HT2A Ki

With `C1=C(c2c[nH]c3cnccc23)CNCC1` [Example 142, 3-(1,2,5,6-tetrahydropyridin-3-yl)-1H-pyrrolo[2,3-c]pyridine] the pKi was 6.82.
